The text below walks through data of ChEMBL document CHEMBL3244299, “Allylic esters as potential antitumor agents. Derivatives and analogues of 2,3-bis(hydroxymethyl)-7-oxabicyclo[2.2.1]hept-2-ene” (J Med Chem, 1979).

Each structure is given as a SMILES string. Calls of active or inactive are those of the source. No cut-off for these calls is given here. Bounds are passed on as bounds.

The test system of series [1] is L1210. Kind of series: Cytotoxicity against mouse L1210 cells assessed as growth inhibition after 40 hrs. The class given is functional.
Series [2] relates to L1210. The experiment in a line: Cytotoxicity against mouse L1210 cells assessed as growth inhibition at 10^-5 M after 40 hrs relative to control. To be noted: L1210, 40 h, read-out: GI. The class given is functional.
For series [3], the system named is L1210. Kind of series: Cytotoxicity against mouse L1210 cells assessed as growth inhibition at 10^-6 M after 40 hrs relative to control. The series is classed as functional. To be noted: L1210, 40 h, read-out: GI.
Series [4] deals with L1210. The experiment in a line: Antitumor activity against mouse L1210 cells allografted in mouse. The series is classed as functional, cell-based.
Series [5] concerns L1210. The experiment in a line: Cytotoxicity against mouse L1210 cells assessed as growth inhibition at 10^-4 M after 40 hrs relative to control. The class given is functional. The settings on record: L1210, 40 h, read-out: GI.
The next series is filed under the species Mus musculus. The experiment in a line: Toxicity in mouse allografted with mouse P388 cells. The series is classed as organism-based.
Another series deals with P388. Kind of series: Antitumor activity against mouse P388 cells allografted in mouse assessed as tumor growth inhibition at 25 mg/kg relative to control. The class given is functional.

For the compound `CCOC(=O)N1[C@@H]2O[C@@H](C(COC(C)=O)=C2COC(C)=O)N1C(=O)OCC`, the ID50 in the series on L1210 [1] was 3 ×10⁻⁵ M. In addition, in the series on L1210 [2], the inhibition of growth at 10 µM is 41%. Besides, in the series on L1210 [3], the inhibition of growth at 1 µM was found to be 13%. Besides, the result in the series on L1210 [4] was inactive. Besides, the inhibition of growth at 100 µM in the series with L1210 [5] came out at 78%.
For `CNC(=O)OCC1=C(COC(=O)NC)[C@@H]2O[C@H]1C(C(=O)OC)=C2C(=O)OC`, the Activity result in the series listed under Mus musculus is listed as “Toxic”.
As to `CC(=O)OCC1=C(COC(C)=O)[C@@H]2O[C@H]1[C@H](OC(C)=O)[C@@H]2OC(C)=O`, the ID50 with L1210 [1] was >1 ×10⁻⁴ M. The inhibition of growth at 10 µM with L1210 [2] was 19%. Also, in the series on L1210 [3], the inhibition of growth at 1 µM worked out at 1%. In addition, in the series with L1210 [4], the outcome was inactive. Further, the inhibition of growth at 100 µM in the series on L1210 [5] came to 34%.
As for `COC(=O)C1=C(C(=O)OC)[C@H]2O[C@@H]1C(COC(C)=O)=C2COC(C)=O`, the IC50 in the series on L1210 [1] (Mus musculus, L1210, 40 h, read-out: ID50 (the source's name)) was < 1000 nM. In the series with L1210 [2], the inhibition of growth at 10 µM was 93%. In addition, the inhibition of growth at 1 µM in the series with L1210 [3] stood at 93%. Also, the result with L1210 [4] was inactive. For the same compound, the inhibition of growth at 100 µM in the series with L1210 [5] came to 93%.
Consider `CC(=O)OCC1=C(COC(C)=O)[C@@H]2O[C@H]1[C@H](O)[C@@H]2O`, for which, in the series with L1210 [1], the ID50 is listed as >1 ×10⁻⁴ M. Moreover, the inhibition of growth at 10 µM in the series on L1210 [2] came out at 3%. In the series with L1210 [4], the outcome was inactive. For the same compound, the inhibition of growth at 100 µM with L1210 [5] was found to be 41%.
`CCCCNC(=O)OCC1=C(COC(=O)NCCCC)[C@@H]2O[C@H]1C(C(=O)OC)=C2C(=O)OC`: in the series on P388, the T/C was 123%.

The T/C is the result in the treated group divided by that in the control group, in per cent.
